From US20250041294A1, “Synergistic compositions for use in the treatment of cancer” (Sartar Therapeutics Oy, priority 2021, published 2025)
pIC50: −log10 of the molar value. Where two headings read alike, the source gives them in different places.

Assays:
Format in all cases: cell-based
GIST882 cell line = assay: High throughput drug sensitivity and resistance test (CellTiter-Glo, 72 hours); settings: drug combined with BAY2666605 (40 nM) minus drug alone
Experimental: High throughput drug sensitivity and resistance test. […] In addition, same compounds were investigated together with anagrelide hydrochloride (100 nM) treatment in the PDE3A low expressing cell lines SA4 and GOT3, and with BAY2666605 (40 nM) in all PDE3A-positive cell lines GIST882, SA4 and GOT3. […] A cell viability was measured after 72 hours using CellTiter-Glo Cell Viability assay (Promega Inc.) and PHERAstar FS plate reader (BMG Labtech). The data were normalized to negative (0.01% dimethyl sulfoxide only) and positive (100 μmol/L benzethonium chloride) controls.
(§1) A four-parameter logistic dose-response curves were estimated by using the Marquardt-Levenberg algorithm and Breeze analysis platform. Drug responses to the test compounds were measured using the drug sensitivity score (DSS). Drug synergy partners, which were common in investigated cell lines were identified as following: DSS value of a single agent was subtracted from the DSS value of anagrelide-drug combination in single cell lines. […] The analysis was repeated by using BAY2666605 as a PDE3A modulator.

[1] = system: GIST882, GOT3 and SA4 cell lines; assay: High throughput drug sensitivity and resistance test, average over cell lines (BAY2666605 combination); settings: for Average DSS (aDSS): BAY2666605 combination, average of GIST882, SA4 and GOT3, aDSS higher than 3.0 = synergy
Experimental: (§2) Cell lines. PDE3A-positive (GIST882, SA4, and GOT3) and PDE3A-negative cell lines (93TT449, 94T778, LPS141, MLS17656-92, MLS402-91, and SW872) were cultured in RPMI Medium 1640 (Gibco) with 5-, 10- or 20% fetal bovine serum (FBS, gibco), 100 U/mL of penicillin, 100 […] and 0.03 mg/mL of L-glutamine (Pen Strep Glut, Gibco, 10378-016) in a humidified, 5% CO2 atmosphere at 37° C.
(§3) High throughput drug sensitivity and resistance test. A sensitivity and resistance of cancer cell lines to 528 compounds were investigated in 9 cell lines (GIST882, SA4, GOT3, 93TT449, 94T778, LPS141, MLS17656-92, MLS402-91, and SW872). In addition, same compounds were investigated together with anagrelide hydrochloride (100 nM) treatment in the PDE3A low expressing cell lines SA4 and GOT3, and with BAY2666605 (40 nM) in all PDE3A-positive cell lines GIST882, SA4 and GOT3. The compounds were dissolved in 100% dimethyl sulfoxide or water and plated in 10-fold dilutions covering a 10,000-fold concentration range on flat clear bottom 384-well microplates as described in detail earlier (Pulkka O P, et al 2019). A cell viability was measured after 72 hours using CellTiter-Glo Cell Viability assay (Promega Inc.) and PHERAstar FS plate reader (BMG Labtech). The data were normalized to negative (0.01% dimethyl sulfoxide only) and positive (100 μmol/L benzethonium chloride) controls.
as §1

SA4 cell line = assay: High throughput drug sensitivity and resistance test (CellTiter-Glo, 72 hours); settings: for SA4 cell line: DSS(combo (BAY2666605))-DSS(drug): drug combined with BAY2666605 (40 nM) minus drug alone
Experimental: as §2, §3, §1

GOT3 cell line = assay: as above; settings: for GOT3 cell line: DSS(combo (BAY2666605))-DSS(drug): drug combined with BAY2666605 (40 nM) minus drug alone
Experimental: as §2, §3, §1

GOT3 and SA4 cell lines = assay: High throughput drug sensitivity and resistance test, average over cell lines (anagrelide combination)
Experimental: as §2, §3, §1

[2] = with anagrelide (GOT3, SA4) or BAY2666605 (GIST882, GOT3, SA4)
[3] = drug combined with anagrelide hydrochloride (100 nM) minus drug alone, SA4
[4] = drug combined with anagrelide hydrochloride (100 nM) minus drug alone, GOT3
[5] = anagrelide combination, average of SA4 and GOT3, aDSS higher than 3.0 = synergy

SMILES | synergy in high-throughput screening (in words) [1, 2] | SA4 cell line: DSS(combo (anagrelide))-DSS(drug) (SA4 cell line; [3]) | GOT3 cell line: DSS(combo (anagrelide))-DSS(drug) (GOT3 cell line; [4]) | Average DSS (aDSS) (GOT3 and SA4 cell lines; [5]) | also measured
NC(=O)/C(=C/n1cnc(-c2cc(C(F)(F)F)cc(C(F)(F)F)c2)n1)c1cncnc1 [Eltanexor, eltanexor] | synergistic | – | – | – | GIST882 cell line: DSS(combo (BAY2666605))-DSS(drug) (GIST882 cell line): 5.4; Average DSS (aDSS) [1]: 3.1; SA4 cell line: DSS(combo (BAY2666605))-DSS(drug) (SA4 cell line; SA4): 3.1; GOT3 cell line: DSS(combo (BAY2666605))-DSS(drug) (GOT3 cell line; GOT3): 0.8
C=C(c1ccc(C(=O)O)cc1)c1cc2c(cc1C)C(C)(C)CCC2(C)C [Bexarotene, bexarotene] | synergistic | – | – | – | GIST882 cell line: DSS(combo (BAY2666605))-DSS(drug) (GIST882 cell line): 6.3; Average DSS (aDSS) [1]: 3.9; SA4 cell line: DSS(combo (BAY2666605))-DSS(drug) (SA4 cell line; SA4): 6.4; GOT3 cell line: DSS(combo (BAY2666605))-DSS(drug) (GOT3 cell line; GOT3): −1.1
C/C=C1\NC(=O)[C@H]2CSSCC/C=C/[C@H](CC(=O)N[C@H](C(C)C)C(=O)N2)OC(=O)[C@H](C(C)C)NC1=O [Romidepsin, romidepsin] | – | 6.3 | 1.4 | – | –
CC1(C)OCCn2c1nc1c(N3CCOCC3)nc(-c3cnc(N)nc3)nc12 [GDC-0084] | synergistic | 3.9 | 2.3 | 3.1 | –
CO[C@@H]1[C@H](N(C)C(=O)c2ccccc2)C[C@H]2O[C@]1(C)n1c3ccccc3c3c4c(c5c6ccccc6n2c5c31)C(=O)NC4 [Midostaurin, midostaurin] | – | 5.1 | 2.3 | 3.7 | –
CN1CCc2c(c3ccccc3n2Cc2ccc(C(=O)NO)cc2)C1 [Tubastatin A, tubastatin A] | synergistic | – | – | – | GIST882 cell line: DSS(combo (BAY2666605))-DSS(drug) (GIST882 cell line): −0.3; Average DSS (aDSS) [1]: 4.4; SA4 cell line: DSS(combo (BAY2666605))-DSS(drug) (SA4 cell line; SA4): 10.7; GOT3 cell line: DSS(combo (BAY2666605))-DSS(drug) (GOT3 cell line; GOT3): 2.8
Nc1nccc(-c2c(-c3ccc(F)cc3)ncn2C2CCCCC2)n1 [PF-670462] | synergistic | 7.1 | 0.2 | 3.65 | –
CC(C)N(C[C@H]1O[C@@H](n2cnc3c(N)ncnc32)[C@H](O)[C@@H]1O)[C@H]1C[C@@H](CCc2nc3cc(C(C)(C)C)ccc3[nH]2)C1 [Pinometostat, pinometostat] | synergistic | – | – | – | GIST882 cell line: DSS(combo (BAY2666605))-DSS(drug) (GIST882 cell line): 3.9; Average DSS (aDSS) [1]: 4.6; SA4 cell line: DSS(combo (BAY2666605))-DSS(drug) (SA4 cell line; SA4): 9.8; GOT3 cell line: DSS(combo (BAY2666605))-DSS(drug) (GOT3 cell line; GOT3): 0
CO[C@@H](C)Cn1c(=O)n(C)c2cnc3ccc(-c4cncc(C(C)(C)O)c4)cc3c21 [LY3023414] | synergistic | – | – | – | GIST882 cell line: DSS(combo (BAY2666605))-DSS(drug) (GIST882 cell line): 2.4; Average DSS (aDSS) [1]: 4.4; SA4 cell line: DSS(combo (BAY2666605))-DSS(drug) (SA4 cell line; SA4): 9.3; GOT3 cell line: DSS(combo (BAY2666605))-DSS(drug) (GOT3 cell line; GOT3): 1.5
CNC(=O)c1ccccc1Nc1cc(Nc2ccc(N3CCOCC3)cc2OC)ncc1C(F)(F)F [VS-4718] | synergistic | 5.3 | 3.8 | 4.55 | –
CC(C)[C@H](C(=O)Nc1ccc(C(=O)NO)cc1)c1ccccc1 [AR-42] | synergistic | 12.9 | −0.8 | 6.05 | –
CN(C)C[C@@H]1CCn2cc(c3ccccc32)C2=C(C(=O)NC2=O)c2cn(c3ccccc23)CCO1 [Ruboxistaurin] | synergistic | 4.8 | 1.8 | 3.3 | –
CO[C@H]1CC[C@H](N2C(=O)CNc3ncc(-c4ccc(C(C)(C)O)nc4)nc32)CC1 [CC-223] | synergistic | 5.6 | 0.8 | 3.2 | –
COc1ccc(-c2nc(N3CCOCC3)c3sc(CN(C)c4ncc(C(=O)NO)cn4)cc3n2)cn1 [CUDC-907] | synergistic | 10.8 | 0 | 5.4 | –
CC(C)Oc1ccc(C(=O)N[C@H](CNC(=O)CN(C)C)Cc2ccc(-c3cn4cccc([C@H](C)O)c4n3)cc2)cc1Cl [GSK923295] | synergistic | 3.9 | 2.8 | 3.35 | –
CC(C)(C)C[C@@H]1N[C@@H](C(=O)N[C@H]2CC[C@H](O)CC2)[C@H](c2cccc(Cl)c2F)[C@]12C(=O)Nc1cc(Cl)ccc12 [SAR405838] | synergistic | 7.8 | 0.1 | 3.95 | –
Cn1cc(-c2cnn3c(N)c(Br)c([C@@H]4CCCNC4)nc23)cn1 [MK-8776] | – | – | – | – | synergy in high-throughput screening (in words) [1]: synergistic; SA4 cell line: DSS(combo (anagrelide))-DSS(drug) (SA4 cell line): 4.8; GOT3 cell line: DSS(combo (anagrelide))-DSS(drug) (GOT3 cell line): 1.6; Average DSS (aDSS) (GOT3 and SA4 cell lines): 3.2
O=C1CN2Cc3c(ccc(Cl)c3Cl)N=C2N1 [Anagrelide, anagrelide] | – | – | – | – | DSS (drug sensitivity score) (SA4 cell line; Anagrelide alone, SA4): 15.4; pIC50 (SA4 cell line; Anagrelide alone, SA4, cell viability 72 hours): 7.13; DSS (drug sensitivity score) (GOT3 cell line; Anagrelide alone, GOT3): 9.2; pIC50 (GOT3 cell line; Anagrelide alone, GOT3, cell viability 72 hours): 7.07
CCN(CCO)CCCOc1ccc2c(Nc3cc(CC(=O)Nc4cccc(F)c4)[nH]n3)ncnc2c1 [AZD1152-HQPA] | synergistic | 5.9 | 3.4 | 4.65 | –
N[C@@H]1CCCN(c2c(/C=C3\SC(=O)NC3=O)cccc2-c2ccccc2)C1 [AZD1208] | synergistic | 7.1 | 0.3 | 3.7 | –
Nc1nc2cc(-c3ccc4ncc(C(=O)N5CCOCC5)n4c3)ccc2o1 [Serabelisib, serabelisib] | synergistic | 5.8 | 1.9 | 3.85 | –
COc1ccc(-c2ccc3c(N4CCOC[C@@H]4C)nc(N4CCOC[C@@H]4C)nc3n2)cc1CO [AZD8055] | synergistic | 5.9 | 1.5 | 3.7 | –
Cn1ncc(Cl)c1-c1cc(C(=O)N[C@H](CN)Cc2ccc(F)c(F)c2)oc1Cl [Uprosertib, uprosertib] | synergistic | 5.4 | 1.8 | 3.6 | –
CC(C)[C@@H](CS(=O)(=O)C(C)C)N1C(=O)[C@@](C)(CC(=O)O)C[C@H](c2cccc(Cl)c2)[C@H]1c1ccc(Cl)cc1 [AMG-232] | synergistic | 6.2 | 0 | 3.1 | –
CNC(=O)c1nn(C)c2c1C(C)(C)Cc1cnc(Nc3ccc(N4CCN(C)CC4)cc3)nc1-2 [Milciclib, milciclib] | synergistic | 3.9 | 3.6 | 3.75 | –
